Where two headings read alike, the source gives them in different places.

This experiment deals with Factor D (Homo sapiens (Human), UniProt P00746). The experiment can be described thus: biochemical. It is filed as biochemical.
Sequence of Factor D (P00746 26-253): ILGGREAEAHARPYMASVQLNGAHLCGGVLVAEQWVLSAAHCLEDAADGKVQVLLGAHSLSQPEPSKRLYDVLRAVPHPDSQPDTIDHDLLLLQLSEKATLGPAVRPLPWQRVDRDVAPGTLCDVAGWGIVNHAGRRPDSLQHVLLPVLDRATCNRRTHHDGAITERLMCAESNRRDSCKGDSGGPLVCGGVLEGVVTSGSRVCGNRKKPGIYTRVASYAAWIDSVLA

`COc1cnc2c(c1)c(C(C)=O)cn2CC(=O)N1[C@@H]2C[C@@H]2C[C@H]1C(=O)NCc1cccc(Cl)c1F` [Example 494, (1R,3S,5R)-2-[2-(3-Acetyl-5-methoxy-pyrrolo[2,3-b]pyridin-1-yl)-acetyl]-2-aza-bicyclo [3.1.0]hexane-3-carboxylic acid 3-chloro-2-fluoro-benzylamide]: the half-inhibitory concentration (IC50) (as a rule, the midpoint of a concentration-inhibition curve) (read-out: IC50) is 0.05 µM. Still for that read-out and setting: the same measure for `O=C(NCc1cccc(Cl)c1F)[C@@H]1C[C@H]2C[C@H]2N1C(=O)Cn1cc(C(=O)C(F)(F)F)c2ccccc21` [Example 495, (1R,3S,5R)-2-{2-[3-(2,2,2-Trifluoro-acetyl)-indol-1-yl]-acetyl}-2-aza-bicyclo[3.1.0] hexane-3-carboxylic acid 3-chloro-2-fluoro-benzylamide]: 0.019 µM. For the compound `C[C@@]1(F)C[C@@H](C(=O)NCc2cccc(Cl)c2F)N(C(=O)Cn2cc(C(N)=O)c3ccccc32)C1` [Example 496, 1-{2-[(2S,4R)-2-(3-Chloro-2-fluoro-benzylcarbamoyl)-4-fluoro-4-methyl-pyrrolidin-1-yl]-2-oxo-ethyl}-1H-indole-3-carboxylic acid amide], the IC50 (read-out: IC50) came out at 0.176 µM. Still for that read-out and setting: in the case of `COc1ccc2c(c1)c(C(N)=O)cn2CC(=O)N1C[C@H](F)C[C@H]1C(=O)NCc1cccc(Cl)c1F` [Example 497, 1-{2-[(2S,4R)-2-(3-Chloro-2-fluoro-benzylcarbamoyl)-4-fluoro-pyrrolidin-1-yl]-2-oxo-ethyl}-5-methoxy-1H-indole-3-carboxylic acid amide] it was 0.128 µM; in that of `CC(=O)c1cn(CC(=O)N2C[C@H](F)C[C@H]2C(=O)NCc2cc(C#N)cc(Cl)c2F)c2ccccc12` [Example 498, (2S,4R)-1-[2-(3-Acetyl-indol-1-yl)-acetyl]-4-fluoro-pyrrolidine-2-carboxylic acid 3-chloro-5-cyano-2-fluoro-benzylamide], 0.692 µM; in that of `COc1ccc2c(C(N)=O)cn(CC(=O)N3C[C@H](F)C[C@H]3C(=O)NCc3cccc(Cl)c3F)c2c1` [Example 499, 1-{2-[(2S,4R)-2-(3-Chloro-2-fluoro-benzylcarbamoyl)-4-fluoro-pyrrolidin-1-yl]-2-oxo-ethyl}-6-methoxy-1H-indole-3-carboxylic acid amide], 0.036 µM. On the same count and under the same terms, the same measure for `COc1ccc2c(C(C)=O)cn(CC(=O)N3C[C@H](F)C[C@H]3C(=O)NCc3cccc(Cl)c3F)c2c1` [Example 500, (2S,4R)-1-[2-(3-Acetyl-6-methoxy-indol-1-yl)-acetyl]-4-fluoro-pyrrolidine-2-carboxylic acid 3-chloro-2-fluoro-benzylamide]: 0.036 µM; for `COc1ccc2c(c1)c(C(C)=O)cn2CC(=O)N1CCCC[C@H]1C(=O)NCc1cccc(Cl)c1F` [Example 501, (S)-1-[2-(3-Acetyl-5-methoxy-indol-1-yl)-acetyl]-piperidine-2-carboxylic acid 3-chloro-2-fluoro-benzylamide]: 0.471 µM; for `CC(=O)c1cn(CC(=O)N2C[C@](C)(F)C[C@H]2C(=O)NCc2cccc(Cl)c2F)c2ccncc12` [Example 502, (2S,4R)-1-[2-(3-Acetyl-pyrrolo[3,2-c]pyridin-1-yl)-acetyl]-4-fluoro-4-methyl-pyrrolidine-2-carboxylic acid 3-chloro-2-fluoro-benzylamide]: 0.449 µM.

`CC(=O)c1cn(CC(=O)N2[C@@H]3C[C@@H]3C[C@H]2C(=O)N[C@H](CCO)c2cccc(Cl)c2F)c2ccccc12` [Example 504, (1R,3S,5R)-2-[2-(3-Acetyl-indol-1-yl)-acetyl]-2-aza bicyclo[3.1.0]hexane-3-carboxylic acid [(R)-1-(3-chloro-2-fluoro-phenyl)-3-hydroxy-propyl]-amide]: the half-inhibitory concentration (IC50) (read-out: IC50) was found to be 0.057 µM. On to `CO[C@H]1[C@@H](C(=O)NCc2cccc(Cl)c2F)N(C(=O)Cn2cc(C(C)=O)c3ccccc32)C[C@@H]1F` [Example 505, (2S,3S,4S)-1-[2-(3-Acetyl-indol-1-yl)-acetyl]-4-fluoro-3-methoxy-pyrrolidine-2-carboxylic acid 3-chloro-2-fluoro-benzylamide], for which the IC50 is 0.014 µM. In the case of `CC(=O)c1cn(CC(=O)N2C[C@H]3C[C@H]3[C@H]2C(=O)NCc2cccc(Cl)c2F)c2cnccc12` [Example 506, (1R,2S,5S)-3-[2-(3-Acetyl-pyrrolo[2,3-c]pyridin-1-yl)-acetyl]-3-aza-bicyclo[3.1.0] hexane-2-carboxylic acid 3-chloro-2-fluoro-benzylamide], for the setting “read-out: IC50”, the concentration for half-maximal inhibition (IC50) amounted to 0.331 µM. On the same count and under the same terms, in the case of `CC(=O)c1cn(CC(=O)N2C[C@H](F)C[C@H]2C(=O)NCc2cccc(Cl)c2F)c2ccccc12` [Example 507, (2S,4R)-1-[2-(3-Acetyl-indol-1-yl)-acetyl]-4-fluoro-pyrrolidine-2-carboxylic acid 3-chloro-2-fluoro-benzylamide] it was 0.016 µM. Same read-out and setting: the same measure for `CC(=O)c1cn(CC(=O)N2C[C@H](F)C[C@H]2C(=O)NCc2cccc(Cl)c2F)c2ccc(OCc3ccccc3)cc12` [Example 508, (2S,4R)-1-[2-(3-Acetyl-5-benzyloxy-indol-1-yl)-acetyl]-4-fluoro-pyrrolidine-2-carboxylic acid 3-chloro-2-fluoro-benzylamide]: 0.012 µM; for `CC(=O)c1cn(CC(=O)N2C[C@H](F)C[C@H]2C(=O)NCc2cccc(Cl)c2F)c2cc(OC(F)(F)F)ccc12` [Example 509, (2S,4R)-1-[2-(3-Acetyl-6-trifluoromethoxy-indol-1-yl)-acetyl]-4-fluoro-pyrrolidine-2-carboxylic acid 3-chloro-2-fluoro-benzylamide]: 0.058 µM.

For `CC(=O)c1cn(CC(=O)N2[C@@H]3C[C@@H]3C[C@H]2C(=O)NCc2cccc(Cl)c2F)c2ccccc12` [Example 510, (1R,3S,5R)-2-[2-(3-Acetyl-indol-1-yl)-acetyl]-2-aza-bicyclo[3.1.0]hexane-3-carboxylic acid 3-chloro-2-fluoro-benzylamide], the IC50 (read-out: IC50) amounted to 0.016 µM. The same measure, in the same setting: the same measure for `CC(=O)c1cn(CC(=O)N2C[C@](C)(F)C[C@H]2C(=O)NCc2cccc(Cl)c2F)c2ccccc12` [Example 511, (2S,4R)-1-[2-(3-Acetyl-indol-1-yl)-acetyl]-4-fluoro-4-methyl-pyrrolidine-2-carboxylic acid 3-chloro-2-fluoro-benzylamide]: 0.071 µM. The same measure, in the same setting: the same measure for `CC(=O)c1cn(CC(=O)N2[C@@H]3CC[C@@H](C3)[C@H]2C(=O)NCc2cccc(Cl)c2F)c2ccccc12` [Example 512, (1R,3S,4S)-2-[2-(3-Acetyl-indol-1-yl)-acetyl]-2-aza-bicyclo[2.2.1]heptane-3-carboxylic acid 3-chloro-2-fluoro-benzylamide]: 0.411 µM; for `CC(=O)c1cn(CC(=O)N2CCS[C@H]2C(=O)NCc2cccc(Cl)c2F)c2ncccc12` [Example 513, (S)-3-[2-(3-Acetyl-pyrrolo[2,3-b]pyridin-1-yl)-acetyl]-thiazolidine-2-carboxylic acid 3-chloro-2-fluoro-benzylamide]: 0.193 µM. On the same count and under the same terms, in the case of `CC(=O)c1cn(CC(=O)N2C[C@H](F)C[C@H]2C(=O)Nc2cccc(OC(F)(F)F)c2F)c2ccccc12` [Example 514, (2S,4R)-1-[2-(3-Actyl-indol-1-yl)-acetyl]-4-fluoro-pyrrolidine-2-carboxylic acid (2-fluoro-3-trifluoromethoxy-phenyl)-amide] it was 0.095 µM; in that of `CC(=O)c1cn(CC(=O)N2[C@@H]3C[C@@H]3C[C@H]2C(=O)Nc2cc(Br)cc(-c3nnn[nH]3)c2)c2ccccc12` [Example 515, (1R,3S,5R)-2-[2-(3-Acetyl-indol-1-yl)-acetyl]-2-aza-bicyclo[3.1.0]hexane-3-carboxylic acid [3-bromo-5-(2H-tetrazol-5-yl)-phenyl]-amide], 0.268 µM; in that of `CC(=O)c1cn(CC(=O)N2C[C@H](F)C[C@H]2C(=O)NCc2cccc(Br)c2F)c2ccccc12` [Example 516, (2S,4R)-1-[2-(3-Acetyl-indol-1-yl)-acetyl]-4-fluoro-pyrrolidine-2-carboxylic acid 3-bromo-2-fluoro-benzyl amide], 0.008 µM. As to `NC(=O)c1cn(CC(=O)N2C[C@H](F)C[C@H]2C(=O)Nc2cccc(C(F)(F)F)c2F)c2ccccc12` [Example 517, 1-{2-[(2S,4R)-4-Fluoro-2-(2-fluoro-3-trifluoromethyl-phenylcarbamoyl)-pyrrolidin-1-yl]-2-oxo-ethyl}-1H-indole-3-carboxylic acid amide], the IC50 (read-out: IC50) was 1.46 µM. The same measure, in the same setting: the same measure for `CC(=O)c1cn(CC(=O)N2C[C@H](F)C[C@H]2C(=O)N[C@H](CO)c2cccc(Cl)c2F)c2ccccc12` [Example 518, (2S,4R)-1-[2-(3-Acetyl-indol-1-yl)-acetyl]-4-fluoro-pyrrolidine-2-carboxylic acid [(S)-1-(3-chloro-2-fluoro-phenyl)-2-hydroxy-ethyl]-amide]: 0.041 µM. Consider `CNC(=O)c1cn(CC(=O)N2C[C@H](F)C[C@H]2C(=O)NCc2cccc(Cl)c2F)c2ccccc12` [Example 519, 1-{2-[(2S,4R)-2-(3-Chloro-2-fluoro-benzylcarbamoyl)-4-fluoro-pyrrolidin-1-yl]-2-oxo-ethyl}-1H-indole-3-carboxylic acid methylamide], for which the IC50 (read-out: IC50) turned out to be 0.722 µM. Still for that read-out and setting: the same measure for `CO[C@H]1[C@@H](C(=O)NCc2cccc(Cl)c2F)N(C(=O)Cn2cc(C(C)=O)c3cccnc32)C[C@@H]1F` [Example 520, (2S,3S,4S)-1-[2-(3-Acetyl-pyrrolo[2,3-b]pyridin-1-yl)-acetyl]-4-fluoro-3-methoxy-pyrrolidine-2-carboxylic acid 3-chloro-2-fluoro-benzylamide]: 0.022 µM; for `CC(=O)c1cn(CC(=O)N2C[C@H](F)C[C@H]2C(=O)NCc2cc(-c3nnn[nH]3)cc(Cl)c2F)c2ccccc12` [Example 521, (2S,4R)-1-[2-(3-Acetyl-indol-1-yl)-acetyl]-4-fluoro-pyrrolidine-2-carboxylic acid 3-chloro-2-fluoro-5-(1H-tetrazol-5-yl)-benzylamide]: 0.037 µM; for `CC(=O)c1cn(CC(=O)N2[C@@H]3C[C@@H]3C[C@H]2C(=O)N[C@H](CN(C)C)c2cccc(Cl)c2F)c2ccccc12` [Example 522, (1R,3S,5R)-2-[2-(3-Acetyl-indol-1-yl)-acetyl]-2-aza-bicyclo[3.1.0]hexane-3-carboxylic acid [(S)-1-(3-chloro-2-fluoro-phenyl)-2-dimethylamino-ethyl]-amide]: 0.415 µM.

The record behind these values is patent publication US9085555B2, “Complement pathway modulators and uses thereof” (priority 2011, dated 2015).
